Assay results as given in patent US12091405B2, “Substituted pyrazole compounds as indoleamine 2,3-dioxygenase inhibitors” (Merck Sharp & Dohme LLC, priority 2018, dated 2024).

Biological target: IDO1 (Homo sapiens, UniProt P14902)
Test: IDO1 Cellular Assay in HeLa Cells Stimulated with IFNγ
Type: cell-based
Conditions: IFNγ 100 ng/mL, 300 uM L-tryptophan, about 48 hours, fluorescence readout, read-out: IDO1 HELA Cell Assay, IC50

Sequence of IDO1 (P14902 whole entry): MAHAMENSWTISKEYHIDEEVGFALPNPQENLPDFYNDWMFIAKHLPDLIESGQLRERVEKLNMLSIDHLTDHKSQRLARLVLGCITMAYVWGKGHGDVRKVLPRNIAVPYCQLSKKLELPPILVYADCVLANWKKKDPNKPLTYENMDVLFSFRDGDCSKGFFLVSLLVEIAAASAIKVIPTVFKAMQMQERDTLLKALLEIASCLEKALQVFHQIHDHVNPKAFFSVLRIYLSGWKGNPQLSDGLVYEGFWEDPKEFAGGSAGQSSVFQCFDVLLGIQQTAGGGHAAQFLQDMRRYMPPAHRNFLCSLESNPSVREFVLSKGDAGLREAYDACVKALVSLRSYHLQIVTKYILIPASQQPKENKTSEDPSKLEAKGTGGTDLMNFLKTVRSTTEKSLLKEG

In order of falling IC50:
1. C[C@@H]1CN(C(=O)c2nn(CC(=O)N3CCC(c4cccc5cnccc45)CC3)c3c2CCC3)C[C@H](C)O1 [Example 171, 2-{3-[(2R,6S)-2,6-dimethylmorpholine-4-carbonyl]-5,6-dihydrocyclopenta[c]pyrazol-1(4H)-yl}-1-[4-(isoquinolin-5-yl)piperidin-1-yl]ethan-1-one]  440 nM
2. COc1ccc(Cl)cc1C1CCN(C(=O)Cn2nc(C(=O)N3C[C@@H](C)O[C@@H](C)C3)c3c2CCC3)CC1 [Example 170, 1-[4-(5-chloro-2-methoxyphenyl)piperidin-1-yl]-2-{3-[(2R,6S)-2,6-dimethylmorpholine-4-carbonyl]-5,6-dihydrocyclopenta[c]pyrazol-1(4H)-yl}ethan-1-one]  361 nM
3. C[C@@H]1CN(C(=O)c2nn(CC(=O)N3CC[C@@H](c4ccccc4)[C@@H](C)C3)c3c2CCC3)C[C@H](C)O1 [Example 79, 2-{3-[(2R,6S)-2,6-dimethylmorpholine-4-carbonyl]-5,6-dihydrocyclopenta[c]pyrazol-1(4H)-yl}-1-[(3R,4R)-3-methyl-4-phenylpiperidin-1-yl]ethan-1-one]  354 nM
4. Cc1cc(F)ccc1C1CCN(C(=O)Cn2nc(C(=O)N3CCN(C(=O)CO)CC3)c3c2CCC3)CC1 [Example 57, 1-(4-(4-fluoro-2-methylphenyl)piperidin-1-yl)-2-(3-(4-(2-hydroxyacetyl)piperazine-1-carbonyl)-5,6-dihydrocyclopenta[c]pyrazol-1(4H)-yl)ethanone]  289 nM
5. C[C@@H]1CN(C(=O)c2nn(CC(=O)N3CCC(c4cc(Cl)cc(Cl)c4)CC3)c3c2CCC3)C[C@H](C)O1 [Example 167, 1-[4-(3,5-dichlorophenyl)piperidin-1-yl]-2-{3-[(2R,6S)-2,6-dimethylmorpholine-4-carbonyl]-5,6-dihydrocyclopenta[c]pyrazol-1(4H)-yl}ethan-1-one]  274 nM
6. Cc1cc(C(F)(F)F)ccc1C1CCN(C(=O)Cn2nc(C(=O)N3C[C@@H](C)O[C@@H](C)C3)c3c2CCC3)CC1 [Example 162, 2-{3-[(2R,6S)-2,6-dimethylmorpholine-4-carbonyl]-5,6-dihydrocyclopenta[c]pyrazol-1(4H)-yl}-1-{4-[2-methyl-4-(trifluoromethyl)phenyl]piperidin-1-yl}ethan-1-one]  173 nM
7. Cc1cccc(F)c1C1CCN(C(=O)Cn2nc(C(=O)N3C[C@@H](C)O[C@@H](C)C3)c3c2CCC3)CC1 [Example 158, 2-{3-[(2R,6S)-2,6-dimethylmorpholine-4-carbonyl]-5,6-dihydrocyclopenta[c]pyrazol-1(4H)-yl}-1-[4-(2-fluoro-6-methylphenyl)piperidin-1-yl]ethan-1-one]  153 nM
8. C[C@@H]1CN(C(=O)c2nn(CC(=O)N3CCC(c4cccc5c4OC(F)(F)O5)CC3)c3c2CCC3)C[C@H](C)O1 [Example 153, 1-[4-(2,2-difluoro-2H-1,3-benzodioxol-4-yl)piperidin-1-yl]-2-{3-[(2R,6S)-2,6-dimethylmorpholine-4-carbonyl]-5,6-dihydrocyclopenta[c]pyrazol-1(4H)-yl}ethan-1-one]  138 nM
9. C[C@@H]1CN(C(=O)c2nn(CC(=O)N3CCC(c4cc(F)ccc4F)CC3)c3c2CCC3)C[C@H](C)O1 [Example 150, 1-[4-(2,5-difluorophenyl)piperidin-1-yl]-2-{3-[(2R,6S)-2,6-dimethylmorpholine-4-carbonyl]-5,6-dihydrocyclopenta[c]pyrazol-1(4H)-yl}ethan-1-one]  122 nM
10. Cc1cc(F)ccc1C1CCN(C(=O)Cn2nc(C(=O)N3CC[C@H](O)[C@@H](F)C3)c3c2CCC3)CC1 [Example 52, 1-(4-(4-fluoro-2-methylphenyl)piperidin-1-yl)-2-(3-((3S,4S)-3-fluoro-4-hydroxypiperidine-1-carbonyl)-5,6-dihydrocyclopenta[c]pyrazol-1(4H)-yl)ethanone]  111 nM
11. C[C@@H]1CN(C(=O)c2nn(CC(=O)N3CCC(c4ccccc4)CC3)c3c2CCC3)C[C@H](C)O1 [Example 70, 2-{3-[(2R,6S)-2,6-dimethylmorpholine-4-carbonyl]-5,6-dihydrocyclopenta[c]pyrazol-1(4H)-yl}-1-(4-phenylpiperidin-1-yl)ethan-1-one]  79.4 nM
12. C[C@@H]1CN(C(=O)c2nn(CC(=O)N3CCC(c4ccc(C5CC5)cc4)CC3)c3c2CCC3)C[C@H](C)O1 [Example 131, 1-[4-(4-cyclopropylphenyl)piperidin-1-yl]-2-{3-[(2R,6S)-2,6-dimethylmorpholine-4-carbonyl]-5,6-dihydrocyclopenta[c]pyrazol-1(4H)-yl}ethan-1-one]  77.9 nM
13. C[C@@H]1CN(C(=O)c2nn(CC(=O)N3CCC(c4cc(F)c(F)c(F)c4)CC3)c3c2CCC3)C[C@H](C)O1 [Example 126, 2-{3-[(2R,6S)-2,6-dimethylmorpholine-4-carbonyl]-5,6-dihydrocyclopenta[c]pyrazol-1(4H)-yl}-1-[4-(3,4,5-trifluorophenyl)piperidin-1-yl]ethan-1-one]  59 nM
14. Cc1c(Cl)cc(Cl)cc1C1CCN(C(=O)Cn2nc(C(=O)N3C[C@@H](C)O[C@@H](C)C3)c3c2CCC3)CC1 [Example 122, 1-[4-(3,5-dichloro-2-methylphenyl)piperidin-1-yl]-2-{3-[(2R,6S)-2,6-dimethylmorpholine-4-carbonyl]-5,6-dihydrocyclopenta[c]pyrazol-1(4H)-yl}ethan-1-one]  54.5 nM
15. Cc1cccc(C2CCN(C(=O)Cn3nc(C(=O)N4CC[C@H](O)[C@H](F)C4)c4c3C[C@@H]3C[C@H]43)CC2)c1C [Example 29, 1-[4-(2,3-dimethylphenyl)piperidin-1-yl]-2-{(3bS,4aS)-3-[(3R,4S)-3-fluoro-4-hydroxypiperidine-1-carbonyl]-3b,4,4a,5-tetrahydro-1H-cyclopropa[3,4]cyclopenta[1,2-c]pyrazol-1-yl}ethan-1-one]  54.2 nM
16. C[C@@H]1CN(C(=O)c2nn(CC(=O)N3CCC(c4cc(F)cc(F)c4F)CC3)c3c2CCC3)C[C@H](C)O1 [Example 117, 2-{3-[(2R,6S)-2,6-dimethylmorpholine-4-carbonyl]-5,6-dihydrocyclopenta[c]pyrazol-1(4H)-yl}-1-[4-(2,3,5-trifluorophenyl)piperidin-1-yl]ethan-1-one]  48.9 nM
17. COc1c(F)cccc1C1CCN(C(=O)Cn2nc(C(=O)N3C[C@@H](C)O[C@@H](C)C3)c3c2CCC3)CC1 [Example 115, 2-{3-[(2R,6S)-2,6-dimethylmorpholine-4-carbonyl]-5,6-dihydrocyclopenta[c]pyrazol-1(4H)-yl}-1-[4-(3-fluoro-2-methoxyphenyl)piperidin-1-yl]ethan-1-one]  48.5 nM
18. Cc1ccc(C2CCN(C(=O)Cn3nc(C(=O)N4C[C@@H](C)O[C@@H](C)C4)c4c3CCC4)CC2)c(C)c1 [Example 105, 2-{3-[(2R,6S)-2,6-dimethylmorpholine-4-carbonyl]-5,6-dihydrocyclopenta[c]pyrazol-1(4H)-yl}-1-[4-(2,4-dimethylphenyl)piperidin-1-yl]ethan-1-one]  30.3 nM
19. C[C@@H]1CN(C(=O)c2nn(CC(=O)N3CCC(c4cc(F)cc(Cl)c4)CC3)c3c2CCC3)C[C@H](C)O1 [Example 99, 1-[4-(3-chloro-5-fluorophenyl)piperidin-1-yl]-2-{3-[(2R,6S)-2,6-dimethylmorpholine-4-carbonyl]-5,6-dihydrocyclopenta[c]pyrazol-1(4H)-yl}ethan-1-one]  27.4 nM
20. O=C(Cn1nc(C(=O)N2CCC(O)CC2)c2c1CCC2)N1CCC(c2cccc3c2CC3)CC1 [Example 16, 1-(4-(bicyclo[4.2.0]octa-1(6),2,4-trien-2-yl)piperidin-1-yl)-2-(3-(4-hydroxypiperidine-1-carbonyl)-5,6-dihydrocyclopenta[c]pyrazol-1(4H)-yl)ethanone]  25 nM
21. Cc1ccc(C2CCN(C(=O)Cn3nc(C(=O)N4C[C@@H](C)O[C@@H](C)C4)c4c3CCC4)CC2)cc1F [Example 91, 2-{3-[(2R,6S)-2,6-dimethylmorpholine-4-carbonyl]-5,6-dihydrocyclopenta[c]pyrazol-1(4H)-yl}-1-[4-(3-fluoro-4-methylphenyl)piperidin-1-yl]ethan-1-one]  11.9 nM
22. Cc1ccc(C2CCN(C(=O)Cn3nc(C(=O)N4C[C@@H](C)O[C@@H](C)C4)c4c3CCC4)CC2)cc1C [Example 89, 2-{3-[(2R,6S)-2,6-dimethylmorpholine-4-carbonyl]-5,6-dihydrocyclopenta[c]pyrazol-1(4H)-yl}-1-[4-(3,4-dimethylphenyl)piperidin-1-yl]ethan-1-one]  8.8 nM
23. Cc1cccc(C2CCN(C(=O)Cn3nc(C(=O)N4CC[C@@H](O)[C@H](F)C4)c4c3CCC4)CC2)c1C [Example 45, 1-(4-(2,3-dimethylphenyl)piperidin-1-yl)-2-(3-((3R,4R)-3-fluoro-4-hydroxypiperidine-1-carbonyl)-5,6dihydrocyclopenta[c]pyrazol-1(4H)-yl)ethanone]  8.1 nM
24. Cc1cccc(C2CCN(C(=O)Cn3nc(C(=O)N4CCC(C)(O)CC4)c4c3CCC4)CC2)c1C [Example 40, 1-(4-(2,3-dimethylphenyl)piperidin-1-yl)-2-(3-(4-hydroxy-4-methylpiperidine-1-carbonyl)-5,6-dihydrocyclopenta[c]pyrazol-1(4H)-yl)ethan-1-one]  2.8 nM
25. CC(=O)NC1CCN(C(=O)c2nn(CC(=O)N3CCC(F)(c4cccc(C)c4C)CC3)c3c2[C@@H]2C[C@@H]2C3)CC1 [Example 12, N-(1-((3bR,4aR)-1-(2-(4-(2,3-dimethylphenyl)-4-fluoropiperidin-1-yl)-2-oxoethyl)-3b,4,4a,5-tetrahydro-1H-cyclopropa[3,4]cyclopenta[1,2-c]pyrazole-3-carbonyl)piperidin-4-yl)acetamide]  2.1 nM
26. Cc1cccc(C2CCN(C(=O)Cn3nc(C(=O)N4CC[C@@H](O)[C@H](F)C4)c4c3C[C@H]3C[C@@H]43)CC2)c1C [Example 24, 1-[4-(2,3-dimethylphenyl)piperidin-1-yl]-2-{(3bR,4aR)-3-[(3R,4R)-3-fluoro-4-hydroxypiperidine-1-carbonyl]-3b,4,4a,5-tetrahydro-1H-cyclopropa[3,4]cyclopenta[1,2-c]pyrazol-1-yl}ethan-1-one]  1.2 nM
